Results published in patent US8129399B2, “Aminopyrimidines useful as kinase inhibitors” (Vertex Pharmaceuticals Incorporated, priority 2005, dated 2012).

Target: T1, FLT-3 (Homo sapiens, UniProt P36888)
T1 sequence (P36888 27-993): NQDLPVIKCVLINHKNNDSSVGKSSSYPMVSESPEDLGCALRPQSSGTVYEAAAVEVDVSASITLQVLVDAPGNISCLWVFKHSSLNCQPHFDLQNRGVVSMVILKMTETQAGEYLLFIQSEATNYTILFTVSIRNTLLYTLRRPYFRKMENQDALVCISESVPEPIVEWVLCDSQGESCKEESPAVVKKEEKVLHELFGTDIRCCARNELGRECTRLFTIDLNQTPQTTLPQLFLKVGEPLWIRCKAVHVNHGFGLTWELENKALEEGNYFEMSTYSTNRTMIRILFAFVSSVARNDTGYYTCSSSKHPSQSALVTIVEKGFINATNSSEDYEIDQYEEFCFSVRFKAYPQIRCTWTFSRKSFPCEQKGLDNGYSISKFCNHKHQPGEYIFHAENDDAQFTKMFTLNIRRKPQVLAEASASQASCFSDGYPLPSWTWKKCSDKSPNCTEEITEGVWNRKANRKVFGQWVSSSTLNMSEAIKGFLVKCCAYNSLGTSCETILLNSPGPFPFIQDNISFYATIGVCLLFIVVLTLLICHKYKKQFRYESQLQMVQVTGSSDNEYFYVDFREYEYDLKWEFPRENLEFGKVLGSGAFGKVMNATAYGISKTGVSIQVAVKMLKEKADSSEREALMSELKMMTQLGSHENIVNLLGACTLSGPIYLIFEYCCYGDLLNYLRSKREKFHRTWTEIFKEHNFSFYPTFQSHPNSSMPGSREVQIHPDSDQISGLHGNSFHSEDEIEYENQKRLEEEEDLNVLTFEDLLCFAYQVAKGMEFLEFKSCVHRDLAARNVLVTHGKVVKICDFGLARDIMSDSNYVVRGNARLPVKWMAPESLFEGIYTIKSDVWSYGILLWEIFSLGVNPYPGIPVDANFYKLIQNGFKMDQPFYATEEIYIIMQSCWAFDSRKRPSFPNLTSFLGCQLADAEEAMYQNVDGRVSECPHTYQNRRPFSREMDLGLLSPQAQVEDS
Assay: FLT-3 inhibition assay, radiometric filter-binding
Type: biochemical
Conditions: 90 μM ATP
Procedure: This assay monitors the ^33P incorporation into a substrate poly(Glu, Tyr) 4:1 (pE4Y). Reactions were carried out in a solution containing 100 mM HEPES (pH 7.5), 10 mM MgCl2, 25 mM NaCl, 1 mM DTT, 0.01% BSA and 2.5% DMSO. Final substrate concentrations in the assay were 90 μM ATP and 0.5 mg/ml pE4Y (both from Sigma Chemicals, St Louis, Mo.). The final concentration of a compound of the present invention was generally between 0.01 and 5 μM. Typically, a 12-point titration was conducted by preparing serial dilutions from 10 mM DMSO stock of test compound. Reactions were carried out at room temperature.
Two assay solutions were prepared. Solution 1 contains 100 mM HEPES (pH 7.5), 10 mM MgCl2, 25 mM NaCl, 1 mg/ml pE4Y and […] (containing 0.3 mCi of [γ-33^P]ATP for each reaction). Solution 2 contains 100 mM HEPES (pH 7.5), 10 mM MgCl2, 25 mM NaCl, 2 mM DTT, 0.02% BSA and 3 nM FLT-3. The assay was run on a 96 well plate by mixing 50 μl each of Solution 1 and […] of the compounds of the present invention. The reaction was initiated with Solution 2. […] All of the reaction volume was then transferred to a filter plate and washed with 5% TCA by a Harvester 9600 from TOMTEC (Hamden, Conn.). The amount of ^33P incorporation into pE4y was analyzed by a Packard Top Count Microplate Scintillation Counter (Meriden, Conn.). The data was fitted using Prism software to get an IC50 or Ki.

| Compound | Ki [nM] |
| --- | --- |
| CCC(=O)Nc1ccc(Sc2nc(Nc3cc(C)n[nH]3)cc(N3CC(O)(C4CC4)C3)n2)cc1 [Compound I-2] | 36 |
| CCC(=O)Nc1ccc(Sc2nc(Nc3cc(C)n[nH]3)cc(N3CC(O)(C4CCCC4)C3)n2)cc1 [Compound I-3] | 26 |
| CCC(=O)Nc1ccc(Sc2nc(Nc3cc(C)n[nH]3)cc(N3CC(O)(C(C)C)C3)n2)cc1 [Compound I-5] | 21 |
| CCC(=O)Nc1ccc(Sc2nc(Nc3cc(C)n[nH]3)cc(N3CC(O)(C(C)CC)C3)n2)cc1 (stereo not shown) [Compound I-6] | 48 |
| CCC(=O)Nc1ccc(Sc2nc(Nc3cc(C4CC4)[nH]n3)cc(N3CC(O)(C4CC4)C3)n2)cc1 [Compound I-7] | 23 |
| Cc1cc(Nc2cc(N3CC(O)(C4CC4)C3)nc(Sc3ccc(NC(=O)C4CC4)cc3)n2)n[nH]1 [Compound I-8] | 28 |
| Cc1cc(Nc2cc(N3CC(O)(C4CC4)C3)nc(Sc3ccc(NC(=O)C4CCCC4)cc3)n2)[nH]n1 [Compound I-9, N-(4-((4-(3-methyl-1H-pyrazol-5-ylamino)-6-(3-cyclopropyl-3-hydroxyazetidin-1-yl)pyrimidin-2-yl)sulfanyl)phenyl)cyclopentanecarboxamide] | 110 |
| O=C(Nc1ccc(Sc2nc(Nc3cc(C4CC4)[nH]n3)cc(N3CC(O)(C4CC4)C3)n2)cc1)C1CC1 [Compound I-10] | 2.5 |
| Cc1cc(Nc2cc(N3CC(O)(C4CC4)C3)nc(Sc3ccc(NC(=O)C4CC4)cc3F)n2)[nH]n1 [Compound I-11, N-(4-((4-(3-methyl-1H-pyrazol-5-ylamino)-6-(3-cyclopropyl-3-hydroxyazetidin-1-yl)pyrimidin-2-yl)sulfanyl)-3-fluorophenyl)cyclopropanecarboxamide] | 20 |
| Cc1cc(Nc2cc(N3CC(O)(C4CC4)C3)nc(Sc3ccc(NC(=O)C4CC4(F)F)cc3)n2)[nH]n1 (stereo not shown) [Compound I-12] | 15 |
| Cc1cc(Nc2cc(N3CC(F)(C4CC4)C3)nc(Sc3ccc(NC(=O)C4CC4)cc3)n2)n[nH]1 [Compound I-13] | 43 |
| Cc1cc(Nc2cc(N3CC(F)(C4CC4)C3)nc(Sc3ccc(NC(=O)CC(F)(F)F)cc3)n2)[nH]n1 [Compound I-14, N-(4-(4-(3-methyl-1H-pyrazol-5-ylamino)-6-(3-cyclopropyl-3-fluoroazetidin-1-yl)pyrimidin-2-ylthio)phenyl)-3,3,3-trifluoropropanamide] | 65 |
| Cc1cc(Nc2cc(N3CC(F)(C4CC4)C3)nc(Sc3ccc(NC(=O)C4CC4)cc3F)n2)n[nH]1 [Compound I-18] | 160 |
| Cc1cc(Nc2cc(N3CC(F)(C4CC4)C3)nc(Sc3ccc(NC(=O)CC4CC4)cc3)n2)[nH]n1 [Compound I-19] | 140 |
| Cc1cc(Nc2cc(N3CC(F)(C4CC4)C3)nc(Sc3ccc(NC(=O)C4CC4(F)F)cc3)n2)[nH]n1 (stereo not shown) [Compound I-20] | 72 |
| Cc1cc(Nc2cc(N3CC(F)(C4CC4)C3)nc(Sc3ccc(NC(=O)CC(F)(F)F)nc3)n2)[nH]n1 [Compound I-21, N-(5-(4-(3-methyl-1H-pyrazol-5-ylamino)-6-(3-cyclopropyl-3-fluoroazetidin-1-yl)pyrimidin-2-ylthio)pyridin-2-yl)-3,3,3-trifluoropropanamide] | 120 |
